Values belong to the molecule of their own block, whether it stands above or below them.
Legend:
Plasmodium falciparum [1] = assay: Antiplasmodial activity against chloroquine-resistant Plasmodium falciparum W2 infected in human erythrocytes after 48 hrs by Geimsa staining; assay type: functional, organism-based; conditions: W2, 48 h
Plasmodium falciparum [2] = assay: Antiplasmodial activity against chloroquine-resistant Plasmodium falciparum K1 assessed as [3H]hypoxanthine incorporation after 24 hrs by scintillation counting; assay type: functional, organism-based
L6 = assay: Cytotoxicity against rat L6 cells after 72 hrs by alamar blue assay; assay type: cell-based; conditions: L6, 72 h
[3] = Selectivity ratio of IC50 for rat L6 cells to IC50 for […]; assay type: ADME, cell-based; conditions: read-out: Ratio IC50
Plasmodium falciparum [4] = assay: Resistance ratio of IC50 for chloroquine-resistance Plasmodium falciparum K1 to IC50 for […]; assay type: functional

SMILES: CCN(CC)Cc1cc(Nc2ccnc3cc(Cl)ccc23)ccc1O
IC50 (Plasmodium falciparum [1]): 5 nM | IC50 (Plasmodium falciparum [2]): 8 nM

SMILES: Clc1ccc2c(Nc3ccc4oc(NCCN5CCCC5)nc4c3)ccnc2c1
IC50 (Plasmodium falciparum [1]): 8 nM | IC50 (Plasmodium falciparum [2]): 22 nM | IC50 (L6): 8700 nM | selectivity ratio [3]: 1090 | Ratio IC50 (Plasmodium falciparum [4]): 2.8

SMILES: CCNc1nc2cc(Nc3ccnc4cc(Cl)ccc34)ccc2o1
IC50 (Plasmodium falciparum [1]): 491 nM | IC50 (Plasmodium falciparum [2]): 921 nM | IC50 (L6): 16400 nM | selectivity ratio [3]: 33.3

SMILES: CCNc1nc2cc(Nc3ccnc4cc(Cl)ccc34)ccc2[nH]1
IC50 (Plasmodium falciparum [1]): 501 nM | IC50 (Plasmodium falciparum [2]): 249 nM | IC50 (L6): 5710 nM | selectivity ratio [3]: 11.4

SMILES: Clc1ccc2c(Nc3ccc(NCCN4CCCC4)nc3)ccnc2c1
IC50 (Plasmodium falciparum [1]): 21 nM | IC50 (Plasmodium falciparum [2]): 92 nM | IC50 (L6): 18600 nM | selectivity ratio [3]: 885 | Ratio IC50 (Plasmodium falciparum [4]): 4.4

SMILES: Clc1ccc2c(Nc3ccc4sc(NCCN5CCOCC5)nc4c3)ccnc2c1
IC50 (Plasmodium falciparum [1]): 40 nM | IC50 (Plasmodium falciparum [2]): 25 nM | IC50 (L6): 4670 nM | selectivity ratio [3]: 117

IC50 (Plasmodium falciparum [1]): 11 nM
SMILES: CCN(CC)CCNc1nc2cc(Nc3ccnc4cc(Cl)ccc34)ccc2s1

SMILES: Clc1ccc2c(Nc3ccc4sc(NCCN5CCCCC5)nc4c3)ccnc2c1
IC50 (Plasmodium falciparum [1]): 13 nM | IC50 (Plasmodium falciparum [2]): 7 nM | IC50 (L6): 3540 nM | selectivity ratio [3]: 272

SMILES: Clc1ccc2c(Nc3ccc4[nH]c(NCCN5CCCCC5)nc4c3)ccnc2c1
IC50 (Plasmodium falciparum [1]): 4580 nM | IC50 (Plasmodium falciparum [2]): 90 nM | IC50 (L6): 5250 nM | selectivity ratio [3]: 1.15

SMILES: CC(C)(C)Nc1nc2cc(Nc3ccnc4cc(Cl)ccc34)ccc2s1
IC50 (Plasmodium falciparum [1]): 1160 nM | IC50 (Plasmodium falciparum [2]): 917 nM | IC50 (L6): 4130 nM | selectivity ratio [3]: 3.56

SMILES: Clc1ccc2c(Nc3ccc4sc(NCCN5CCCC5)nc4c3)ccnc2c1
IC50 (Plasmodium falciparum [1]): 12 nM | IC50 (Plasmodium falciparum [2]): 14 nM | IC50 (L6): 5120 nM | selectivity ratio [3]: 426 | Ratio IC50 (Plasmodium falciparum [4]): 1.2

SMILES: CCN(CC)CCNc1nc2cc(Nc3ccnc4cc(Cl)ccc34)ccc2[nH]1
IC50 (Plasmodium falciparum [1]): 200 nM | IC50 (Plasmodium falciparum [2]): 827 nM | IC50 (L6): 15300 nM | selectivity ratio [3]: 76.4

SMILES: Clc1ccc2c(Nc3ccc(NCCN4CCOCC4)nc3)ccnc2c1
IC50 (Plasmodium falciparum [1]): 41 nM | IC50 (Plasmodium falciparum [2]): 73 nM | IC50 (L6): 47400 nM | selectivity ratio [3]: 1160
